Results on 21 compounds are retold here after US8846675B2, “N-linked heterocyclic receptor agonists for the treatment of diabetes and metabolic disorders” (Cymabay Therapeutics, Inc., priority 2007, dated 2014).

Each structure is given as a SMILES string.

The target in one assay is T1, IC-GPCR2 (Homo sapiens, UniProt Q8TDV5).
T1 construct: expressed in transfected cells
T1 sequence (Q8TDV5 1-335 S309L): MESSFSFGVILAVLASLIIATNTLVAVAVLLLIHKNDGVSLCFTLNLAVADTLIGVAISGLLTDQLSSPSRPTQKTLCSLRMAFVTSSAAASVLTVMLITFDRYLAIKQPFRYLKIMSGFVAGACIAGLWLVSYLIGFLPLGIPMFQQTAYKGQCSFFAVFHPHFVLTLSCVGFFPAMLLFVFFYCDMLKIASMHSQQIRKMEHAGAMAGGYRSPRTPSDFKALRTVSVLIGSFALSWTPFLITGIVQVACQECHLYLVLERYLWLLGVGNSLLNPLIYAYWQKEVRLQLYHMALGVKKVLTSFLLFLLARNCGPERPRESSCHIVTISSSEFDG
Briefly: Stimulation of cAMP in CHO cell line stably expressing IC-GPCR2 (HTRF cAMP dynamic kit). Type of assay: cell-based. Conditions: 3 μM compound; relative to maximal activity of 5-Ethyl-2-{4-[4-(4-tetrazol-1-yl-phenoxymethyl)-thiazol-2-yl]-piperidin-1-yl}-pyrimidine (=100%); IC-GPCR2 stably expressing CHO cells, 30 minutes. How it is done: This assay was developed using a stable cell line expressing IC-GPCR-2, generated as follows. IC-GPCR2 (Seq. ID No. 1) was cloned into Gateway pDEST 40vector (Invitrogen), using the Gateway cloning system (invitrogen) according to the manufacturers instructions. A stable cell line was generated by transfecting a 10 cm plate of CHO cells (source) with 8 ug of this construct using Transit-CHO transfection kit (Mirus). CHO cells were plated the day prior to transfection at a density of 3,000,000 cells/plate. Clones were selected using the antibiotic G418 at 500 ug/ml. 23 clones were picked and assayed for the expression of the receptor by measuring changes in intracellular cAMP levels in response to an IC-GPCR2 agonist (Arena 51).
To measure cAMP activity in response to IC-GPCR2 agonist, the clones were plated in 96 well plates at 17500 cells per well. On the day after plating, cells were incubated with the IC-CPCR2 agonist at […] for 30 minutes in Ham's F12 Media (Gibco) with 0.04% DMSO. cAMP was measured using the cAMP dynamic kit from C is Bio (Bedford, Mass.) according to the manufacturers instructions. Briefly, cells were lysed, and cAMP levels determined by competitive immunoassay using D2 labeled cAMP, and europium cryptate tagged anti cAMP antibody. When in close proximity, the D2 and europium cryptate undergo fluorescence resonance energy transfer (FRET), which is measured as a fluorescence ratio (665 nm/620 nm). Unlabelled cAMP in the cell lysatc competed with the D2 labeled cAMP for the europium crypate labeled antibody. The resulting decrease in FRET signal corresponded to intracellular cAMP levels. Fluorescence was read on a BMG Labtech PHERAstar, software version 1.50.
The clone with the greatest response to IC-GPCR2 agonist was selected for the screening assay.
Compounds were dissolved in 100% DMSO to a concentration of […] to provide stock solutions. To determine activity against IC-GPCR2, compounds were incubated with IC-GPCR2 stably expressing cells (described above), at 6-8 concentrations ranging from 0.00003 to 10 micromolar, in 96 well plates, in 50 ul of Hams F12 media for 30 minutes. Cells were plated at 17500 cells per well 1 day before running the assay. All compounds were also screened against the parental CHO cells. cAMP was measured using the cAMP dynamic kit from Cis Bio (Bedford, Mass.), according to the manufacturer's instructions. Briefly, cells were lysed and cAMP levels determined by competitive immunoassay using D2 labeled cAMP, and europium cryptate tagged anti cAMP antibody. When in close proximity, the D2 and europium cryptate undergo fluorescence resonance energy transfer (FRET), which is measured as a fluorescence ratio (665 nm/620 nm). Unlabelled cAMP in the cell lysate competed with the D2 labeled cAMP for the europium crypate labeled antibody. The resulting decrease in FRET signal corresponded to intracellular cAMP levels
To determine percent activity for a tested compound, the FRET signal value obtained at a particular concentration are compared to the Maximal FRET signal value obtained for 5-Ethyl-2-{4-[4-(4-tetrazol-1-yl-phenoxymethyl)-thiazol-2-yl]-piperidin-1-yl}-pyrimidine. The maximal activity of 5-Ethyl-2-{4-[4-(4-tetrazol-1-yl-phenoxymethyl)-thiazol-2-yl]-piperidin-1-yl}-pyrimidine is designated as 100% activity. Typically, the concentration of 5-Ethyl-2-{4-[4-(4-tetrazol-1-yl-phenoxymethyl)-thiazol-2-yl]-piperidin-1-yl}-pyrimidine in the assay was approximately 0.1 μM. The synthesis of 5-Ethyl-2-{4-[4-(4-tetrazol-1-yl-phenoxymethyl)-thiazol-2-yl]-piperidin-1-yl}-pyrimidine is disclosed in co-owned pending U.S. patent application Ser. No. 11/964,461, herein incorporated by reference. Activities of compounds that were tested are shown in Table 1 below and are expressed as % activity at 3 μM compound compared to the maximal activity of 5-Ethyl-2-{4-[4-(4-tetrazol-1-yl-phenoxymethyl)-thiazol-2-yl]-piperidin-1-yl}-pyrimidine at 3 μM.
For orientation: TR-FRET usually uses a lanthanide donor and a delayed reading to cut background.
In the case of `O=C(c1ncccc1O)N1CCC(n2ncc(COc3ccc(-n4cnnn4)cc3F)n2)CC1` [Example 110, (4-(4-((2-Fluoro-4-(1H-tetrazol-1-yl)phenoxy)methyl)-2H-1,2,3-triazol-2-yl)piperidin-1-yl)(3-hydroxypyridin-2-yl)methanone], the “% activity at 3 μM” value is listed as 1.30%.

In the case of `O=C(c1ccccn1)N1CCC(n2ncc(COc3ccc(-n4cnnn4)cc3F)n2)CC1` [Example 108, (4-(4-((2-Fluoro-4-(1H-tetrazol-1-yl)phenoxy)methyl)-2H-1,2,3-triazol-2-yl)piperidin-1-yl)(pyridin-2-yl)methanone], the “% activity at 3 μM” value was 41.78%.

On to `Fc1cnc(N2CCC(n3ncc(COc4ccc(-n5cnnn5)nc4)n3)CC2)nc1` [Example 31, 2-(4-(4-((6-(1H-tetrazol-1-yl)pyridin-3-yloxy)methyl)-2H-1,2,3-triazol-2-yl)piperidin-1-yl)-5-fluoropyrimidine], for which the “% activity at 3 μM” value came out at 59.95%. On to `CCc1cnc(N2CCC(n3ncc(COc4ccc(S(C)(=O)=O)cc4F)n3)CC2)nc1` [Example 10, 5-Ethyl-2-{4-[4-(2-fluoro-4-methanesulfonyl-phenoxymethyl)-[1,2,3]triazol-2-yl]-piperidin-1-yl}-pyrimidine], for which the “% activity at 3 μM” value turned out to be 71.04%.

Regarding `CC(C)(C)OC(=O)N1CCC(n2cnc(COc3ccc(S(C)(=O)=O)cc3F)n2)CC1` [Example 1, 4-[3-(2-Fluoro-4-methanesulfonyl-phenoxymethyl)-[1,2,4]triazol-1-yl]-piperidine-1-carboxylic acid tert-butyl ester], the “% activity at 3 μM” value worked out at 64.46%. In the case of `Cc1cnc(N2CCC(n3ncc(COc4ccc(-n5cnnn5)nc4)n3)C(C)C2)nc1` (stereo not drawn) [Example 86, 2-(4-(4-((6-(1H-Tetrazol-1-yl)pyridin-3-yloxy)methyl)-2H-1,2,3-triazol-2-yl)-3-methylpiperidin-1-yl)-5-methylpyrimidine], the “% activity at 3 μM” value came out at 71.39%. Take `CC(C)COC(=O)N1CCC(n2ncc(COc3ccc(S(C)(=O)=O)cc3F)n2)CC1` [Example 103, Isobutyl 4-(4-((2-fluoro-4-(methylsulfonyl)phenoxy)methyl)-2H-1,2,3-triazol-2-yl)piperidine-1-carboxylate]: the “% activity at 3 μM” value stood at 51.30%. Consider `CC(C)(C)OC(=O)N1CC[C@@H](n2ncc(COc3ccc(-n4cnnn4)cc3F)n2)[C@H](F)C1` (relative stereo) [Example 49, (trans)-tert-Butyl 3-fluoro-4-(4-((2-fluoro-4-(1H-tetrazol-1-yl)phenoxy)methyl)-2H-1,2,3-triazol-2-yl)piperidine-1-carboxylate], for which the “% activity at 3 μM” value came out at 78.48%. In the case of `CC(C)OC(=O)N1CCC(n2ncc(COc3ccc(S(C)(=O)=O)cc3F)n2)CC1` [Example 36, Isopropyl 4-(4-((2-fluoro-4-(methylsulfonyl)phenoxy)methyl)-2H-1,2,3-triazol-2-yl)piperidine-1-carboxylate], the “% activity at 3 μM” value stood at 70.06%. Regarding `CC(C)OC(=O)N1CCC(n2ncc(COc3ccc(-n4cnnn4)nc3)n2)CC1` [Example 35, Isopropyl 4-(4-((6-(1H-tetrazol-1-yl)pyridin-3-yloxy)methyl)-2H-1,2,3-triazol-2-yl)piperidine-1-carboxylate], the “% activity at 3 μM” value was 72.14%. As to `Fc1cc(-n2cnnn2)ccc1OCc1cnn([C@H]2CCN(c3ncc(Cl)cn3)C[C@@H]2F)n1` (racemic) [Example 33, 5-Chloro-2-((trans)-3-fluoro-4-(4-((2-fluoro-4-(1H-tetrazol-1-yl)phenoxy)methyl)-2H-1,2,3-triazol-2-yl)piperidin-1-yl)pyrimidine], the “% activity at 3 μM” value is recorded as 88.32%. As to `CS(=O)(=O)c1ccc(OCc2cnn(C3CCN(C(=O)OCc4ccccc4)CC3)n2)c(F)c1` [Example 104, Benzyl 4-(4-((2-fluoro-4-(methylsulfonyl)phenoxy)methyl)-2H-1,2,3-triazol-2-yl)piperidine-1-carboxylate], the “% activity at 3 μM” value amounted to 28.40%. The same measure, in the same setting: the result for `CCOC(=O)c1cnc(N2CCC(n3ncc(COc4ccc(S(C)(=O)=O)cc4F)n3)CC2)nc1` [Example 105, Ethyl 2-(4-(4-((2-fluoro-4-(methylsulfonyl)phenoxy)methyl)-2H-1,2,3-triazol-2-yl)piperidin-1-yl)pyrimidine-5-carboxylate] reads 10.65%; that for `COC(=O)Cc1cnc(N2CCC(n3ncc(COc4ccc(-n5cnnn5)nc4)n3)CC2)nc1` [Example 52, Methyl 2-(2-(4-(4-((6-(1H-tetrazol-1-yl)pyridin-3-yloxy)methyl)-2H-1,2,3-triazol-2-yl)piperidin-1-yl)pyrimidin-5-yl)acetate], 52.86%.

In the case of `Cc1ncccc1OCc1cnn(C2CCN(c3ncc(C(F)(F)F)cn3)CC2)n1` [Example 48], the “% activity at 3 μM” value is 83.24%. Regarding `CC(C)(C)OC(=O)N1CCC(n2nnc(COc3ccc(S(C)(=O)=O)cc3F)n2)CC1` [Example 5, 4-[5-(2-Fluoro-4-methanesulfonyl-phenoxymethyl)-tetrazol-2-yl]-piperidine-1-carboxylic acid tert-butyl ester], the “% activity at 3 μM” value amounted to 75.78%. Same read-out and setting: to `Fc1cnc(N2CCC(n3ncc(COc4ccc(-n5cnnn5)cc4F)n3)CC2)nc1` [Example 30, 5-Fluoro-2-(4-(4-((2-fluoro-4-(1H-tetrazol-1-yl)phenoxy)methyl)-2H-1,2,3-triazol-2-yl)piperidin-1-yl)pyrimidine] belongs 53.41%.

Consider `C=CCOC(=O)N1CCC(n2ncc(COc3ccc(-n4cnnn4)nc3)n2)CC1` [Example 77, Allyl 4-(4-((6-(1H-tetrazol-1-yl)pyridin-3-yloxy)methyl)-2H-1,2,3-triazol-2-yl)piperidine-1-carboxylate], for which the “% activity at 3 μM” value is 69.86%. The same measure, in the same setting: to `CC1CC(n2ncc(COc3ccc(-n4cnnn4)cc3F)n2)CCN1c1ncc(Cl)cn1` (stereo not drawn) [Example 69, 5-Chloro-2-(4-(4-((2-fluoro-4-(1H-tetrazol-1-yl)phenoxy)methyl)-2H-1,2,3-triazol-2-yl)-2-methylpiperidin-1-yl)pyrimidine] belongs 55.22%.

Still in this assay, the particulars now being: 3 μM compound; relative to maximal activity of 5-Ethyl-2-{4-[4-(4-tetrazol-1-yl-phenoxymethyl)-thiazol-2-yl]-piperidin-1-yl}-pyrimidine (=100%); IC-GPCR2 stably expressing CHO cells, 30 minutes; 3 µM.
For `CC(C)(C)OC(=O)N1C2CCC1CC(n1ncc(COc3ccc(-n4cnnn4)nc3)n1)C2` (stereo not drawn) [Example 72, endo-tert-Butyl 3-(4-((6-(1H-tetrazol-1-yl)pyridin-3-yloxy)methyl)-2H-1,2,3-triazol-2-yl)-8-azabicyclo[3.2.1]octane-8-carboxylate], the “% activity at 3 μM” value was found to be 60.55%. As for `Fc1cnc(N2C3CCC2CC(n2ncc(COc4ccc(-n5cnnn5)nc4)n2)C3)nc1` (stereo not drawn) [Example 74, endo-3-(4-((6-(1H-tetrazol-1-yl)pyridin-3-yloxy)methyl)-2H-1,2,3-triazol-2-yl)-8-(5-fluoropyrimidin-2-yl)-8-azabicyclo[3.2.1]octane], the “% activity at 3 μM” value came out at 61.88%.
